# Results as given in patent US20260335223A1, “Topical Copolymer Formulations for Hydrophobic Drug Delivery” (1376683 B.C. LTD, priority 2023, published 2026).
# Tests used:
# [1] = Skin permeation, Franz diffusion cell; conditions: topical, with DBC3333 vs formulation without; 3 hours
# Excerpt: To collect the data illustrated in this Example, fresh pig skin is placed on a Franz diffusion cell and the formulation of interest is applied to the outer skin surface. After three hours the cell is dismantled and the exposed circular area excised. […] The amount of drug in each section is then quantitated and expressed at mass of drug/gram of tissue.
# For cannabinoid aqueous gel preparation for skin permeation study and therapeutic efficacy studies, a water-based gel comprised of water, phenoxyethanol, ethylhexyl glycerin, acrylates/C10-30 alkyl acrylate crosspolymer, sodium hydroxide and allantoin, was used as the gel base. Gel base and diblock copolymer were weighed, mixed together and heated using a microwave for 4 seconds. A homogenous gel containing diblock copolymer was achieved via levigation of the mixture. Gel base without diblock copolymer was weighed and used for the control formula. Commercial cannabinoid-containing extracts containing known quantities of cannabinoid were weighed and dissolved in a pre-weighed amount of cacao butter over 45 °C heat. The cacao butter cannabinoid mixture was then weighed and incorporated into the gel base, with or without diblock copolymer, via levigation to produce the final gel samples. Cannabinoid content of the final gel samples was analyzed using HPLC. […] Gel samples were stored in air-tight containers at 4 °C until the time of use.
# For carboxymethyl cellulose (CMC) gel and Glaxal® base preparation for skin permeation study of cannabidiol (CBD), curcumin, capsaicin and finasteride, CMC gel was made using medium viscosity CMC as a 2% w/v aqueous solution following overnight stirring. […] For CMC preparations containing DBC, DBC was weighed into a glass vial and a small volume of the drug of interest in acetonitrile:methanol (50:50) was added to dissolve all. The solution was then dried for 2 hours in a warm oven (50 °C). In all cases the ratio of DBC:drug was 95:5. A known weight of CMC gel was then added to the warmed vial containing the dried DBC/drug mixture and vortexed to disperse and dissolve all drug. Glaxal® base was used as received. Glaxal® base containing drug was prepared by first weighing drug and dissolving in a known volume of ethanol or methanol. The ethanol or methanol drug solution was then added to a weighed amount of Glaxal® base followed by levigation of the mixture. For CBD, capsaicin, docetaxel and finasteride, it was not possible to prepare CMC gels without the use of DBC, due to drug insolubility. Therefore Glaxal® base preparations containing these drugs were employed as DBC-free comparison groups (control) for skin permeation studies.
# For carboxymethyl cellulose (CMC) gel and Glaxal® base preparation for skin permeation study of docetaxel, 2% CMC gel was prepared as described above. Docetaxel (DTX) 6 mg was weighed into 190 μL of acetonitrile and 10 μL of 3H radiolabeled DTX was added. Then 66 μL (i.e., 2 mg of drug) was pipetted into a vial with 40 mg of DBC to dissolve all. The contents were dried down and 1 mL of warm 2% CMC gel was added with vortexing to dissolve all DBC and drug as a micellar solution. For Glaxal® paste 66 μL of the drug solution was dried down to approximately 20 μL and 1 gram of Glaxal® base added to disperse the drug.
# Fresh pig skin was obtained from a butcher and defatted to 5 mm thickness and shaved. 2 cm^2 pieces were cut with scissors and placed on Franz diffusion cells filled with PBS and clamped. 100 mg of each formulation was weighed and placed on top of the tissue and capped. The cells were placed in a 37 °C humid incubator for three hours and then dismantled. The tissue was washed three times with PBS and the centre drug-loaded circle of tissue was cut out with scissors and snap frozen. Tissues were sectioned by cryosectioning into 50 μm cuts pooled into groups of five.
# [2] = Limit of aqueous solubility with/without PCL25 (HPLC or UV/VIS); assay type: physicochemical; conditions: water
# Protocol: Aqueous solubility studies involving diblock copolymer PCL25 (63:37 MePEG:PCL MW 7900 Da) were carried out as follows. 1 mg of drug (either paclitaxel, capsaicin or curcumin) was added to glass vials, designated as either “control” or “diblock copolymer”. Diblock copolymer was omitted from control vials and 100 mg PCL25 was added to diblock copolymer vials. The contents of all vials were then dissolved in 300 microlitres of acetonitrile. The contents were dried at 60 °C for two hours and then 1 mL of warm water (40 °C) was added with vortexing for five minutes. To determine the limit of drug solubility, the contents of each vial were then placed in a microcentrifuge tube and centrifuged at 14000×g for 3 minutes to sediment any undissolved solids. The supernatant was diluted 50% in acetonitrile and the drug was quantitated by HPLC for paclitaxel and capsaicin or by UV/VIS spectrometry (420 nm) for curcumin after 100 fold dilution in acetonitrile for this drug. HPLC conditions were detection at 228 nm for both drugs and a mobile phase of 60:40 (paclitaxel) or 50:50 (capsaicin) acetonitrile:water flowing at 1 mL/min. Calibration standard for all drugs were run in acetonitrile.
# [3] = Curcumin release from PVA film; assay type: physicochemical; conditions: for Curcumin released from PVA film: by 2 hours
# Protocol: The 88% hydrolyzed version of PVA was used with a molecular weight of between 100000 and 150000 daltons. PVA was dissolved in water at 10% w/v by heating to 90 °C for one hour and then cooled. Separately, 40 mg of diblock copolymer DBC3333 was weighed into a glass vial and 100 μL of curcumin solution (10 mg/mL in ethanol) was added to 2 mL of the 10% PVA solution with mixing to give the non diblock casting solutions. Alternatively, 100 μL of the curcumin solution was added to 40 mg of diblock copolymer to dissolve it and then this was mixed with 2 mL of PVA solution. These give PVA films containing 20% diblock with approximately 0.5% curcumin (1 mg curcumin per film). The films were cast in small petri dishes and air dried at 37 °C for 4 hours.
# This observational solubilization experiment added 2 mL of water to the film at t=0 and then at 5, 10, 25 mins the liquid was removed into a test tube for observation.
# A second set of the same films were prepared and used for a drug release experiment whereby 10 mL of PBS (10 mM pH 7.4) was added to the films and at specified time points, 100 μL of solution was collected and added to 400 μL of water. The absorbance of these solutions was then measured at 420 nm by uv/vis absorbance.
# osteoarthritis = assay: Therapeutic efficacy case reports, osteoarthritis (VAS pain); assay type: in vivo, human
# Protocol: (§1) In all cases, therapeutic efficacy studies were carried out with volunteer participants under the supervision of a healthcare practitioner. In all cases, informed consent was obtained. Participants were blinded to the DBC content of the gel samples provided. Participants were offered samples of control cannabinoid gel (no DBC) and asked to apply to the affected area twice daily and as needed for one week. Participants were told to maintain adherence to any prescribed medications while using the cannabinoid gel. Participants were contacted immediately after the one week treatment period for assessment. Following a washout period ranging from 4 to 12 weeks, participants were offered samples of DBC cannabinoid gel and asked to apply in the same manner, twice daily and as needed for one week, while maintaining adherence to any prescribed medications. Participants were contacted immediately after the one week treatment period for assessment. Efficacy was assessed using average daily 10-point visual analogue scale (VAS) pain score prior to beginning treatment and immediately after treatment. Participants were also asked to report all adverse effects experienced, if any, such as skin irritation, skin rash, localized or diffuse discomfort or pain, dizziness, fatigue, impaired concentration, feelings of euphoria or dysphoria, or other psychotropic effects.
# [4] = background statement; cited from earlier work
# [5] = diblock copolymer micelles, background; cited from earlier work
# rheumatoid arthritis = assay: Therapeutic efficacy case report, rheumatoid arthritis (VAS pain); assay type: in vivo, human
# Protocol: as §1
smiles,measurement,setting,value
"COc1cc(/C=C/C(=O)CC(=O)/C=C/c2ccc(O)c(OC)c2)ccc1O [Curcumin, curcumin]",Skin permeation,[1],enhanced skin permeation
same,Solubility,"[2]; control, no diblock copolymer",< 1 µg/mL
same,Solubility,[2]; with diblock copolymer PCL25 100 mg/mL,1000 µg/mL
same,Curcumin release rate from PVA film,[3]; DBC3333 20% w/w to PVA vs no diblock,much faster
same,Curcumin released from PVA film,[3]; DBC3333 20% w/w to PVA,all drug released
same,Yellow colour in dish (observational solubilization),[3]; diblock containing film vs no diblock film,markedly stronger
same,Curcumin released from PVA film,"[3]; no diblock copolymer, room temperature",6%
CC(=O)Nc1ccc(O)cc1 [acetaminophen],Participant's description of efficacy/pain,osteoarthritis; Case 1,little to no pain relief or prevention of pain during or after exercise
CC[C@@]1(O)C(=O)OCc2c1cc1n(c2=O)Cc2cc3ccccc3nc2-1 [camptothecin],Water solubility,[4],1 µg/mL
same,Formation of drug-loaded micelles,[5],do not form drug-loaded micelles
CC(C)Cc1ccc(C(C)C(=O)O)cc1 (stereo not shown) [ibuprofen],Participant's description of efficacy,rheumatoid arthritis; Case 4,mildly effective
same,VAS pain level after ibuprofen 400 mg,"rheumatoid arthritis; Case 4, history, from 4",3
same,VAS pain level after as-needed medication,"osteoarthritis; Case 1, history, used when pain level reaches 4",3
